Values joined by “and” are separate entries in the source; they are usually repeats but may differ in a detail not shown here. Equal values may be shown once. Inconclusive results and toxic doses are left out. Rule for the calls: active = survival T/C of 150% or more; inactive = T/C below 125% in these data.
System: P388 leukemia ip, CD2F1 mice, survival T/C
Assay: NCI In Vivo Anticancer Drug Screen. Data for tumor model P388 Leukemia (intraperitoneal) in CD2F1 (CDF1) mice
Conditions: endpoint: median survival time, higher = longer survival
Method in brief: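 Mice carrying the transplanted tumor received test compound or vehicle. Survival was recorded in each group, and the value is the treated-group measurement divided by that of the vehicle-treated control group.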

[1] = dose: 100.0 mg/kg/injection, schedule: Q04DX003 (ip), vehicle: Klucel (hydroxypropylcellulose) (HPC)
[2] = dose: 200.0 mg/kg/injection, schedule: Q04DX003 (ip), vehicle: Klucel (hydroxypropylcellulose) (HPC)
[3] = dose: 400.0 mg/kg/injection, schedule: Q04DX003 (ip), vehicle: Klucel (hydroxypropylcellulose) (HPC)
[4] = dose: 12.5 mg/kg/injection, schedule: Q01DX009 (ip), vehicle: Klucel (hydroxypropylcellulose) (HPC)
[5] = dose: 25.0 mg/kg/injection, schedule: Q01DX009 (ip), vehicle: Klucel (hydroxypropylcellulose) (HPC)
[6] = dose: 50.0 mg/kg/injection, schedule: Q01DX005 (ip), vehicle: Klucel (hydroxypropylcellulose) (HPC)
[7] = dose: 100.0 mg/kg/injection, schedule: Q01DX005 (ip), vehicle: Klucel (hydroxypropylcellulose) (HPC)
[8] = dose: 50.0 mg/kg/injection, schedule: Q01DX005 (ip), vehicle: saline
[9] = dose: 100.0 mg/kg/injection, schedule: Q01DX005 (ip), vehicle: saline
[10] = dose: 50.0 mg/kg/injection, schedule: Q01DX005 (ip), vehicle: saline with Tween-80
[11] = dose: 100.0 mg/kg/injection, schedule: Q01DX005 (ip), vehicle: saline with Tween-80
[12] = dose: 200.0 mg/kg/injection, schedule: Q01DX005 (ip), vehicle: saline with Tween-80
[13] = dose: 50.0 mg/kg/injection, schedule: Q01DX009 (ip), vehicle: Klucel (hydroxypropylcellulose) (HPC)
[14] = dose: 200.0 mg/kg/injection, schedule: Q01DX009 (ip), vehicle: Klucel (hydroxypropylcellulose) (HPC)

Measured: T/C

CN(C(=O)C(Cl)Cl)c1ccc(-c2csc(-c3ccccc3)n2)cc1
inactive: [1] 100 % of control | [2] 97 % of control | [3] 91 % of control

O=C(c1ccncc1)N(CO)N(Cn1c(=O)sc2ccccc21)Cn1c(=O)sc2ccccc21
inactive: dose: 6.25 mg/kg/injection, schedule: Q01DX009 (ip), vehicle: Klucel (hydroxypropylcellulose) (HPC) 101 % of control | [4] 94 % of control | [5] 92 % of control

CC(C)C(=O)N[C@H]1C[C@H]2CCC1(C)C2(C)C
inactive: [6] 103 % of control and 93 % of control | [7] 107 % of control and 96 % of control | dose: 200.0 mg/kg/injection, schedule: Q01DX005 (ip), vehicle: Klucel (hydroxypropylcellulose) (HPC) 111 % of control and 95 % of control

c1ccc([P+](c2ccccc2)(c2ccccc2)c2ccccc2)cc1
inactive: dose: 0.63 mg/kg/injection, schedule: Q04DX003 (ip), vehicle: saline 100 % of control | dose: 1.25 mg/kg/injection, schedule: Q04DX003 (ip), vehicle: saline 118 % of control | dose: 2.5 mg/kg/injection, schedule: Q04DX003 (ip), vehicle: saline 122 % of control | dose: 3.3 mg/kg/injection, schedule: Q04DX003 (ip), vehicle: saline 122 % of control

COC1CC(C)C(OC)c2cc(O)cc(c2O)NC(=O)/C(C)=C/C=C\C(C)C(OC(N)=O)/C(C)=C\C(C)C1OC (stereo not drawn)
inactive: dose: 0.63 mg/kg/injection, schedule: Q01DX009 (ip), vehicle: saline + alcohol 116 % of control | dose: 1.25 mg/kg/injection, schedule: Q01DX009 (sc), vehicle: saline + alcohol 99 % of control | dose: 2.5 mg/kg/injection, schedule: Q01DX009 (sc), vehicle: saline + alcohol 93 % of control | dose: 5.0 mg/kg/injection, schedule: Q01DX009 (sc), vehicle: saline + Tween-80 + alcohol 94 % of control | dose: 5.0 mg/kg/injection, schedule: Q01DX009 (sc), vehicle: saline + alcohol 98 % of control | dose: 10.0 mg/kg/injection, schedule: Q01DX009 (sc), vehicle: saline + alcohol 90 % of control | dose: 20.0 mg/kg/injection, schedule: Q01DX009 (oral), vehicle: saline + Tween-80 + alcohol 92 % of control | dose: 40.0 mg/kg/injection, schedule: Q01DX009 (oral), vehicle: saline + Tween-80 + alcohol 93 % of control | dose: 80.0 mg/kg/injection, schedule: Q01DX009 (oral), vehicle: saline + Tween-80 + alcohol 92 % of control | dose: 160.0 mg/kg/injection, schedule: Q01DX009 (oral), vehicle: saline + Tween-80 + alcohol 94 % of control | dose: 240.0 mg/kg/injection, schedule: Q01DX009 (oral), vehicle: saline + Tween-80 + alcohol 103 % of control
active: dose: 20.0 mg/kg/injection, schedule: Q01DX009 (ip), vehicle: saline + alcohol 160 % of control

CN1C2C=C(c3ccc(C(F)(F)F)cc3)CC1CC2 (stereo not drawn)
inactive: dose: 25.0 mg/kg/injection, schedule: Q01DX005 (ip), vehicle: Klucel (hydroxypropylcellulose) (HPC) 100 % of control and 107 % of control | [6] 106 % of control | [8] 102 % of control | [7] 98 % of control | [9] 104 % of control

NP(=O)(Oc1c2occc2cc2ccc(=O)oc12)N(CCCl)CCCl (stereo not drawn)
inactive: [10] 111 % of control | [11] 99 % of control | [12] 114 % of control

CSC(=N/O)/C(=N\O)SC
inactive: [4] 107 % of control | [5] 99 % of control | [13] 100 % of control and 102 % of control | [14] 89 % of control

COC(=O)CN1C(=O)c2cccc3cc(N)cc(c23)C1=O
inactive: [11] 87 % of control

Nc1ccc(Cl)cc1C(=O)c1ccccc1Cl
inactive: dose: 60.0 mg/kg/injection, schedule: Q01DX005 (ip), vehicle: saline with Tween-80 96 % of control | dose: 120.0 mg/kg/injection, schedule: Q01DX005 (ip), vehicle: saline with Tween-80 96 % of control | dose: 240.0 mg/kg/injection, schedule: Q01DX005 (ip), vehicle: saline with Tween-80 90 % of control

CCCCCCCC/C=C\CCCCCCCC(=O)OCCSCCOC(C)=O
inactive: [13] 94 % of control | dose: 100.0 mg/kg/injection, schedule: Q01DX009 (ip), vehicle: Klucel (hydroxypropylcellulose) (HPC) 101 % of control | [14] 94 % of control

C=CC[P+](Cc1ccccc1)(c1ccccc1)c1ccccc1
inactive: dose: 0.78 mg/kg/injection, schedule: Q01DX009 (ip), vehicle: saline 107 % of control | dose: 1.56 mg/kg/injection, schedule: Q01DX009 (ip), vehicle: saline 103 % of control | dose: 3.13 mg/kg/injection, schedule: Q01DX009 (ip), vehicle: saline 96 % of control

CNC(=O)Oc1ccc2c(c1)[C@]1(C)CCN(C)O[C@@H]1N2C
inactive: dose: 0.79 mg/kg/injection, schedule: Q01DX005 (ip), vehicle: Klucel (hydroxypropylcellulose) (HPC) 100 % of control | dose: 1.56 mg/kg/injection, schedule: Q01DX005 (ip), vehicle: Klucel (hydroxypropylcellulose) (HPC) 100 % of control

COc1cc(OC)c(C2CC(C)(OC)Oc3cc4c(cc32)OCO4)c(OC)c1 (stereo not drawn)
inactive: [10] 103 % of control | [11] 97 % of control | [12] 90 % of control

Cc1cccc2c1CC(C(C)C)C2 (stereo not drawn)
inactive: dose: 25.0 mg/kg/injection, schedule: Q01DX009 (ip), vehicle: saline with Tween-80 111 % of control and 89 % of control | dose: 50.0 mg/kg/injection, schedule: Q01DX009 (ip), vehicle: saline with Tween-80 108 % of control and 96 % of control | dose: 100.0 mg/kg/injection, schedule: Q01DX009 (ip), vehicle: saline with Tween-80 104 % of control and 107 % of control | dose: 200.0 mg/kg/injection, schedule: Q01DX009 (ip), vehicle: saline with Tween-80 90 % of control

CC[C@]12CN3CCc4c([nH]c5ccccc45)[C@@](C(=O)OC)(c4cc5c(cc4OC)N(C=O)[C@H]4[C@@](O)(C(=O)OC)[C@H](OC(C)=O)[C@]6(CC)C=CCN7CC[C@]54[C@@H]76)C[C@H](C3)[C@H]1O2
inactive: dose: 1.0 mg/kg/injection, schedule: Q01DX009 (ip), vehicle: saline 123 % of control
active: dose: 4.0 mg/kg/injection, schedule: Q01DX009 (ip), vehicle: saline 166 % of control | dose: 6.0 mg/kg/injection, schedule: Q01DX009 (ip), vehicle: saline 175 % of control

CN(C(=O)C(Cl)Cl)c1ccc(-c2csc(-c3ccc(O)cc3)n2)cc1
inactive: [1] 100 % of control | [2] 99 % of control | [3] 99 % of control

CCCCCCCCCCCCn1cc[n+](CC(=O)N(O)Cc2ccccc2)c1C
inactive: dose: 1.56 mg/kg/injection, schedule: Q01DX005 (ip), vehicle: saline with Tween-80 93 % of control | dose: 3.12 mg/kg/injection, schedule: Q01DX005 (ip), vehicle: saline with Tween-80 90 % of control | dose: 6.25 mg/kg/injection, schedule: Q01DX005 (ip), vehicle: saline with Tween-80 86 % of control

Nc1nnnn1/N=C/c1ccccc1
inactive: dose: 50.0 mg/kg/injection, schedule: Q04DX002 (ip), vehicle: Klucel (hydroxypropylcellulose) (HPC) 87 % of control | dose: 100.0 mg/kg/injection, schedule: Q04DX002 (ip), vehicle: Klucel (hydroxypropylcellulose) (HPC) 101 % of control | dose: 200.0 mg/kg/injection, schedule: Q04DX002 (ip), vehicle: Klucel (hydroxypropylcellulose) (HPC) 100 % of control

COc1ccc(C(Nc2ccccn2)c2cc(C(C)(C)C)c(O)c(C(C)(C)C)c2)cc1 (stereo not drawn)
inactive: [10] 88 % of control | [11] 91 % of control | [12] 95 % of control

CC1CC(C)CN(C)C1 (stereo not drawn)
inactive: [8] 100 % of control | [9] 100 % of control

CCOC(=O)c1cnc2ccccn2c1=O
inactive: dose: 50.0 mg/kg/injection, schedule: Q01DX009 (ip), vehicle: saline 90 % of control | dose: 100.0 mg/kg/injection, schedule: Q01DX009 (ip), vehicle: saline 88 % of control

O=C(CSc1ccccc1)c1ccccc1
inactive: dose: 10.0 mg/kg/injection, schedule: Q01DX005 (ip), vehicle: Klucel (hydroxypropylcellulose) (HPC) 101 % of control | dose: 20.0 mg/kg/injection, schedule: Q01DX005 (ip), vehicle: Klucel (hydroxypropylcellulose) (HPC) 102 % of control | dose: 40.0 mg/kg/injection, schedule: Q01DX005 (ip), vehicle: Klucel (hydroxypropylcellulose) (HPC) 101 % of control

COc1ccc(/C=C/C(=O)c2cc(C(=O)O)c(OC)cc2OC)cc1OC
inactive: dose: 50.0 mg/kg/injection, schedule: Q01DX009 (ip), vehicle: suspension in saline 117 % of control and 120 % of control | dose: 100.0 mg/kg/injection, schedule: Q01DX009 (ip), vehicle: suspension in saline 123 % of control

CC(C)C(NC(=O)c1ccccc1)C(=O)O (stereo not drawn)
inactive: [10] 98 % of control | [11] 93 % of control | [12] 88 % of control
